Results taken from ChEMBL document CHEMBL5705899 (Biochem J, 2014).
Calls of active or inactive are those of the source.

How the values were obtained:
[1] = target: Mitogen-activated protein kinase 15 (Homo sapiens) (UniProt Q8TD08); assay: Inhibition of human ERK7 at 1 uM using RBER-CHKtide as substrate in presence of 33P-ATP by ProQinase assay
[2] = target: Mitogen-activated protein kinase 9 (Homo sapiens) (UniProt P45984); assay: Inhibition of human JNK2 at 1 uM using ATF2 as substrate in presence of 33P-ATP by ProQinase assay
Chain of Mitogen-activated protein kinase 9 (Homo sapiens) (P45984 whole entry, looked up): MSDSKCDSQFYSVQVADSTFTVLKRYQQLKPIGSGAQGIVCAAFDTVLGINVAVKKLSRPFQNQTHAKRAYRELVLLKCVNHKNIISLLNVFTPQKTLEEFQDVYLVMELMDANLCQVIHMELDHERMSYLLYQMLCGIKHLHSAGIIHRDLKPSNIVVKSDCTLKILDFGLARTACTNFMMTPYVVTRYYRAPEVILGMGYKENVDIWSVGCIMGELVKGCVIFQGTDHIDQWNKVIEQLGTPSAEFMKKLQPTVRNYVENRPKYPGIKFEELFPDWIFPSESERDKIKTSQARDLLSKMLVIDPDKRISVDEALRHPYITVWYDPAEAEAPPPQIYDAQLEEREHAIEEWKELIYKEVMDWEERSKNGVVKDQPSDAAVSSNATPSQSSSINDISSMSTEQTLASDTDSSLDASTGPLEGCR

[3] = target: Mitogen-activated protein kinase kinase kinase 5 (Homo sapiens) (UniProt Q99683); assay: Inhibition of human ASK1 at 1 uM using RBER-GSK3 as substrate in presence of 33P-ATP by ProQinase assay
Chain of Mitogen-activated protein kinase kinase kinase 5 (Homo sapiens) (Q99683 whole entry): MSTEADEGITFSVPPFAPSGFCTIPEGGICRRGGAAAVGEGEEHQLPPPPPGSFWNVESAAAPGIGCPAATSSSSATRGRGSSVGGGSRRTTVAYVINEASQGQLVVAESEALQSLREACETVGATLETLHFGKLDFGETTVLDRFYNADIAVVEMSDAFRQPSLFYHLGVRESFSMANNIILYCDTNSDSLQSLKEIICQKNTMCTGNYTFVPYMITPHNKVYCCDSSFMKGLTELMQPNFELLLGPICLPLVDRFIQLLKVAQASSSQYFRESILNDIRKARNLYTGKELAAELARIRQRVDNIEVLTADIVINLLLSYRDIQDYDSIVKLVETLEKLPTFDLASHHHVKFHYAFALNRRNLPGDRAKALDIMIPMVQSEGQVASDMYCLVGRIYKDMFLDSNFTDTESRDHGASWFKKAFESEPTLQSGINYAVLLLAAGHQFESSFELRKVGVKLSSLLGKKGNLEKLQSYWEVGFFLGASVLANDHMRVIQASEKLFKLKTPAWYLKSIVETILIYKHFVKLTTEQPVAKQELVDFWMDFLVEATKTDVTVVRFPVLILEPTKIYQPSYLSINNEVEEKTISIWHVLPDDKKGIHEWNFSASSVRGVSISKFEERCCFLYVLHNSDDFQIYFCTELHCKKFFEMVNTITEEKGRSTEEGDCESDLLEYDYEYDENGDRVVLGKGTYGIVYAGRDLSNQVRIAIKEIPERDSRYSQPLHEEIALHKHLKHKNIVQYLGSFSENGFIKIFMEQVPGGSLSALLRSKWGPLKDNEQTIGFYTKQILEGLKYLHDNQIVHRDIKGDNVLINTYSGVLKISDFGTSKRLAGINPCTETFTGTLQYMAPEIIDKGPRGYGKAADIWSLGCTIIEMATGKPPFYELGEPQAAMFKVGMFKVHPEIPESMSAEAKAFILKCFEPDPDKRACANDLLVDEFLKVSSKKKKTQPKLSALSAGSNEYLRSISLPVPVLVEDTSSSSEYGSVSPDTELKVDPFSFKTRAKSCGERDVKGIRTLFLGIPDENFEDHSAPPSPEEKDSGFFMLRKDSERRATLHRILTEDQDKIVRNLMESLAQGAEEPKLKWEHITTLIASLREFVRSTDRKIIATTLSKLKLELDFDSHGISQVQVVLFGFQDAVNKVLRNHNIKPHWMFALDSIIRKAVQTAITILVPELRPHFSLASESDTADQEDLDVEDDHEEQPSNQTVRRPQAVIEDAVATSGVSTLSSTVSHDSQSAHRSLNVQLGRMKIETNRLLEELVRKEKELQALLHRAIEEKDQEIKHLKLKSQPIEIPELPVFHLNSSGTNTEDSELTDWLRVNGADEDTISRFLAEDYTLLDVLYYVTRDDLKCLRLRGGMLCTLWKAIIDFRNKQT

[4] = target: Cytoplasmic tyrosine-protein kinase BMX (Homo sapiens) (UniProt P51813); assay: Inhibition of human BMX at 1 uM using polyEy as substrate in presence of 33P-ATP by ProQinase assay
[5] = target: RAC-gamma serine/threonine-protein kinase (Homo sapiens) (UniProt Q9Y243); assay: Inhibition of human AKT3 at 1 uM using RBER-GSK3 as substrate in presence of 33P-ATP by ProQinase assay
[6] = target: Tyrosine-protein kinase Srms (Homo sapiens) (UniProt Q9H3Y6); assay: Inhibition of human SRMS at 1 uM using PolyEY as substrate in presence of 33P-ATP by ProQinase assay
Chain of Tyrosine-protein kinase Srms (Homo sapiens) (Q9H3Y6 whole entry): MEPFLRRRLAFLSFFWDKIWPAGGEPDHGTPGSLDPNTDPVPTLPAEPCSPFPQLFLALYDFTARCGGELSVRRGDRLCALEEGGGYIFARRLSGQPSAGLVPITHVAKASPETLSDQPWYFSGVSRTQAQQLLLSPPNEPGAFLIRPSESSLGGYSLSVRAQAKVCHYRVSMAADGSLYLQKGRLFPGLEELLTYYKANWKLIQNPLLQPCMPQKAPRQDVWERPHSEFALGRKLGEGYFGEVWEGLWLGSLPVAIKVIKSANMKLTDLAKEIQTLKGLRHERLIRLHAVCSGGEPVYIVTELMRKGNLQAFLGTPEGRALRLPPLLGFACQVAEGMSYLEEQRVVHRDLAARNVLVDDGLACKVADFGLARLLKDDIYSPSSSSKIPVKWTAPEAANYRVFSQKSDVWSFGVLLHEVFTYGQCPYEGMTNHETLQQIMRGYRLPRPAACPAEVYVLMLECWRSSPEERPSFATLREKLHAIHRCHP

[7] = target: Eukaryotic elongation factor 2 kinase (Homo sapiens) (UniProt O00418); assay: Inhibition of human EEF2K at 1 uM using RBER-GSK3 as substrate in presence of 33P-ATP by ProQinase assay
[8] = target: PI3-kinase p110-delta/p85-alpha (Homo sapiens, UniProt O00329); assay: Inhibition of human PIK3CD/PIK3R1 using PIP2/PS as substrate by ADP-Glo assay; type: protein-complex assay
[9] = target: Serine/threonine-protein kinase D1 (Homo sapiens) (UniProt Q15139); assay: Inhibition of recombinant human N-terminal His6-tagged PKD1 (2 to 912 residues) expressed in baculovirus infected Sf21 cells assessed as remaining activity at 1 uM using KKLNRTLSVA as substrate incubated for 30 mins in presence of [gamma-33P]ATP by filter binding method relative to control
[10] = target: Serine/threonine-protein kinase PAK 6 (Homo sapiens) (UniProt Q9NQU5); assay: Inhibition of recombinant human N-terminal GST-tagged PAK6 (2 to 681 residues) expressed in Escherichia coli assessed as remaining activity at 1 uM using RRRLSFAEPG as substrate incubated for 30 mins in presence of [gamma-33P]ATP by filter binding method relative to control
[11] = target: Proto-oncogene tyrosine-protein kinase receptor Ret (Homo sapiens) (UniProt P07949); assay: Inhibition of human RET at 1 uM using polyEY as substrate in presence of 33P-ATP by ProQinase assay
[12] = target: Macrophage-stimulating protein receptor (Homo sapiens) (UniProt Q04912); assay: Inhibition of human RON at 1 uM using polyEY as substrate in presence of 33P-ATP by ProQinase assay
[13] = target: Mitogen-activated protein kinase kinase kinase kinase 3 (Homo sapiens) (UniProt Q8IVH8); assay: Inhibition of recombinant human MAP4K3 (1 to 873 residues) expressed in baculovirus infected Sf21 cells assessed as remaining activity at 1 uM using MBP as substrate incubated for 30 mins in presence of [gamma-33P]ATP by filter binding method relative to control
[14] = target: Inhibitor of nuclear factor kappa-B kinase subunit beta (Homo sapiens) (UniProt O14920); assay: Inhibition of recombinant human N-terminal His6-tagged IKKbeta (1 to 736 residues) expressed in baculovirus infected Sf21 cells assessed as remaining activity at 1 uM using LDDRHDSGLDSMKDEEY as substrate incubated for 30 mins in presence of [gamma-33P]ATP by filter binding method relative to control
Chain of Inhibitor of nuclear factor kappa-B kinase subunit beta (Homo sapiens) (O14920 whole entry, the tested form may be a part): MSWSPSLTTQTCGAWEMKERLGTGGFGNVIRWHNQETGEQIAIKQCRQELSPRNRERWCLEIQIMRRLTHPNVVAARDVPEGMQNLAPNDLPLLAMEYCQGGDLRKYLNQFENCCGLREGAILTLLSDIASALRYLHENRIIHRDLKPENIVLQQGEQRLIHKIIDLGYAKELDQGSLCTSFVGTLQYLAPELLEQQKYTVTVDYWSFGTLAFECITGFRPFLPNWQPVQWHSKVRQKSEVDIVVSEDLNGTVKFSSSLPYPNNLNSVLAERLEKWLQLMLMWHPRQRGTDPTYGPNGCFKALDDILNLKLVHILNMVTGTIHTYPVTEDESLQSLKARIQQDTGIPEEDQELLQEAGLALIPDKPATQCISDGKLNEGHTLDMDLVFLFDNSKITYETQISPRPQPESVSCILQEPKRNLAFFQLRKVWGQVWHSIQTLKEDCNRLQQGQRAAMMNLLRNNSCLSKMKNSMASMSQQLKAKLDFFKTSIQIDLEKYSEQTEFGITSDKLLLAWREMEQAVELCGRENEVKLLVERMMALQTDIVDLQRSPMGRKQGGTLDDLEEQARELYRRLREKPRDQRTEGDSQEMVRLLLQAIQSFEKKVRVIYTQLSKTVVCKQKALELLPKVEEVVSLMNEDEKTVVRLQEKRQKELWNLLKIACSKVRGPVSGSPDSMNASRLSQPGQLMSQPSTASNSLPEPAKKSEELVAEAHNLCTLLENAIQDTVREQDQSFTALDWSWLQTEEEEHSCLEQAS

[15] = target: Serine/threonine-protein kinase tousled-like 1 (Homo sapiens) (UniProt Q9UKI8); assay: Inhibition of recombinant human N-terminal GST-tagged TLK1 (1 to 766 residues) expressed in Escherichia coli assessed as remaining activity at 1 uM using MBP as substrate incubated for 30 mins in presence of [gamma-33P]ATP by filter binding method relative to control
[16] = target: Tyrosine-protein kinase Tec (Homo sapiens) (UniProt P42680); assay: Inhibition of human TEC at 1 uM using polyEY as substrate in presence of 33P-ATP by ProQinase assay
[17] = target: Aurora kinase A (Homo sapiens) (UniProt O14965); assay: Inhibition of recombinant human N-terminal Hi6-tagged Aurora A (2 to 403 residues) expressed in Escherichia coli assessed as remaining activity at 1 uM using LRRLSLGLRRLSLGLRRLSLGLRRLSLG as substrate incubated for 30 mins in presence of [gamma-33P]ATP by filter binding method relative to control
[18] = target: G protein-coupled receptor kinase 6 (Homo sapiens) (UniProt P43250); assay: Inhibition of human GRK6 at 1 uM using casein as substrate in presence of 33P-ATP by ProQinase assay
[19] = target: Tyrosine-protein kinase ZAP-70 (Homo sapiens) (UniProt P43403); assay: Inhibition of recombinant human N-terminal His6-tagged ZAP70 (1 to 619 residues) expressed in baculovirus infected Sf21 cells assessed as remaining activity at 1 uM using Poly(Glu,Tyr) as substrate incubated for 30 mins in presence of [gamma-33P]ATP by filter binding method relative to control
[20] = target: Macrophage colony-stimulating factor 1 receptor (Homo sapiens) (UniProt P07333); assay: Inhibition of human CSF1R at 1 uM using polyEY as substrate in presence of 33P-ATP by ProQinase assay
[21] = target: Serine/threonine-protein kinase NLK (Homo sapiens) (UniProt Q9UBE8); assay: Inhibition of human NLK at 1 uM using RBER-GSK3 as substrate in presence of 33P-ATP by ProQinase assay
Chain of Serine/threonine-protein kinase NLK (Homo sapiens) (Q9UBE8 whole entry): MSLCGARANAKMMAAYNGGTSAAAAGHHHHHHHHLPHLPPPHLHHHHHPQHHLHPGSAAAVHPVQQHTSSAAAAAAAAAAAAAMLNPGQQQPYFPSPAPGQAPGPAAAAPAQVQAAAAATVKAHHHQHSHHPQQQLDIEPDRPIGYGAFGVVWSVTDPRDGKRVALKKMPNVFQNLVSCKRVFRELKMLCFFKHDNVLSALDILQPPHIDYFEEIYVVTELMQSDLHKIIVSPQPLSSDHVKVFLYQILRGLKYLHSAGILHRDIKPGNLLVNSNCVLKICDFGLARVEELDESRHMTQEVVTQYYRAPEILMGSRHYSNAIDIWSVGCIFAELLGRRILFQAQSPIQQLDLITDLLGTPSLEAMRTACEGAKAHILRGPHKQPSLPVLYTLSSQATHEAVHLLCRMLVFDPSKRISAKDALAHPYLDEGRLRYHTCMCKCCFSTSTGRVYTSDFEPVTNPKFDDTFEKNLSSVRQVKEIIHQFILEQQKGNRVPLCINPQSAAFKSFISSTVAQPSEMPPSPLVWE

[22] = target: Activated CDC42 kinase 1 (Homo sapiens) (UniProt Q07912); assay: Inhibition of human ACK1 at 1 uM using polyEy as substrate in presence of 33P-ATP by ProQinase assay
Chain of Activated CDC42 kinase 1 (Homo sapiens) (Q07912 whole entry, looked up, the tested form may be a part): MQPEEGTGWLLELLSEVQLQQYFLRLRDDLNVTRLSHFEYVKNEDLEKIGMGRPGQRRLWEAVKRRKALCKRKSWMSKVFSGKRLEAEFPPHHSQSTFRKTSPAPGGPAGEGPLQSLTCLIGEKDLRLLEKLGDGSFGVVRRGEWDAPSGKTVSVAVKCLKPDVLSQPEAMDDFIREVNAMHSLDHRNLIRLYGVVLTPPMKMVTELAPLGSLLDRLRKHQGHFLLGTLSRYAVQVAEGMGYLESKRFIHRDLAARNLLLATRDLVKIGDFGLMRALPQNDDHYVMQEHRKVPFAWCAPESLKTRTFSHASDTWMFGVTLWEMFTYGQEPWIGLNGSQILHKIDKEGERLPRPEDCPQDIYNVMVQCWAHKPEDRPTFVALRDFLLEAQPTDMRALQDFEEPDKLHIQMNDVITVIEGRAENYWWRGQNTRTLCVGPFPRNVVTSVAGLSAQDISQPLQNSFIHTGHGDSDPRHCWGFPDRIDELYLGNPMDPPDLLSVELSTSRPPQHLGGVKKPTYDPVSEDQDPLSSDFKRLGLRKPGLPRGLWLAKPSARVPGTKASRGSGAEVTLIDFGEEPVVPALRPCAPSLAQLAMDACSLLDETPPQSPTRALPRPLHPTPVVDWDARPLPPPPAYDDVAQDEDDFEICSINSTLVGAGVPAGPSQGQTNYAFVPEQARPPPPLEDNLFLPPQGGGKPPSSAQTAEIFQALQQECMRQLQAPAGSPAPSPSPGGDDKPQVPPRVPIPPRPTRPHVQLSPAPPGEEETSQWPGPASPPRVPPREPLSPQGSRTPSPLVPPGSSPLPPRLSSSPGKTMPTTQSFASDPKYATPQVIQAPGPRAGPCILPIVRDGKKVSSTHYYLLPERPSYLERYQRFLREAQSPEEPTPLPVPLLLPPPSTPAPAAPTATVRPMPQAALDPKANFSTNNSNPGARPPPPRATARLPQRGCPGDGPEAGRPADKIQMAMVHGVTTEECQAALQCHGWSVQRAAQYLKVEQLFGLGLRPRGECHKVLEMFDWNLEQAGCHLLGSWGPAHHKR

[23] = target: PI3-kinase p110-alpha/p85-alpha (Homo sapiens) (UniProt P27986+P42336); assay: Inhibition of recombinant human N-terminal His6-tagged PI3Kalpha (2 to 1068 residues)/p85A (1 to 724 residues) expressed in baculovirus expression system at 1 uM using diC8 PIP2 as substrate incubated for 80 mins by ADP-Glo assay
[24] = target: MAP kinase-interacting serine/threonine-protein kinase 1 (Homo sapiens) (UniProt Q9BUB5); assay: Inhibition of human MKNK1 at 1 uM using RB-S6P as substrate in presence of 33P-ATP by ProQinase assay
Chain of MAP kinase-interacting serine/threonine-protein kinase 1 (Homo sapiens) (Q9BUB5 whole entry, looked up): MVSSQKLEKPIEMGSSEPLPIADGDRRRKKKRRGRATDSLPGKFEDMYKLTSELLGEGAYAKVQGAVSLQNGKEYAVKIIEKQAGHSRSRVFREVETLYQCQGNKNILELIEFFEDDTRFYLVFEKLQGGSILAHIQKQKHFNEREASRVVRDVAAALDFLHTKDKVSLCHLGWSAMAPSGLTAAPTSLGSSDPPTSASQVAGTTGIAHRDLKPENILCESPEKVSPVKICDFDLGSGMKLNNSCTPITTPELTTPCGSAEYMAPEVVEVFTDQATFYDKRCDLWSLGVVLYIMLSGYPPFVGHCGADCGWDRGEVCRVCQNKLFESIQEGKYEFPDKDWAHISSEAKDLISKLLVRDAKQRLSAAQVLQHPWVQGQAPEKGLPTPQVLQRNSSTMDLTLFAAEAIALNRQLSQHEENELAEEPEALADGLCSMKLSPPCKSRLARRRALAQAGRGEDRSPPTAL

[25] = target: Ephrin type-A receptor 1 (Homo sapiens) (UniProt P21709); assay: Inhibition of human EPHA1 at 1 uM using polyEY as substrate in presence of 33P-ATP by ProQinase assay

CC(C)(O)CNc1ncc(-c2ccnc(Nc3ccnc(Cl)c3)n2)c(CC2CC2)n1
117%: Activity [13]
inactive: inhibition [1] | inhibition [2] | inhibition [3] | inhibition [4] | inhibition [5] | inhibition [6] | inhibition [7] | inhibition [11] | inhibition [12] | inhibition [16] | inhibition [18] | inhibition [20] | inhibition [21] | inhibition [22] | inhibition [23] | inhibition [24] | inhibition [25]
100%: Activity [15]
110%: Activity [17] | Activity [19]
115%: Activity [9]
97%: Activity [10]
> 10 µM: IC50 [8]
106%: Activity [14]
